Assay results as given in patent publication US5278308A, “Iodine derivatives of tetrabenazine” (The Trustees of The University of Pennsylvania, priority 1992, dated 1994).
Each block holds one compound with its values, some of them ahead of it.

How the values were obtained:
[1] = system: rat plasma; test: Protein binding by Filter (50% rat plasma, Amicon micropartition system); assay type: in vitro ADME; conditions: 30 min, 37° C.
Protocol: One mL of rat plasma (50%) was mixed with [^123 I]I-TBZ in a test tube. After 30 min incubation at 37° C., 50 uL ×3 of liquid was removed as initial dose standard (I.D.); the rest was passed through an Amicon micropartition system (Amicon division, W. R. Grace, Danvers, Mass.) by centrifuging for 20 minutes (2,000 rpm) at 0° C. Four samples (50 uL each) were removed from the filtered solution and counted. The protein binding (% bound) was calculated by using the unit counts in filtrate divided by unit counts in ID.

[2] = system: rat plasma; test: Protein binding by TCA (10% rat plasma, 30 min, 37° C.); assay type: in vitro ADME; conditions: TCA precipitation
Protocol: One ml of 10% rat plasma was mixed with [^123 I]I-TBZ in a test tube and the mixture was incubated for 30 minutes at 37° C. To the mixture 0.4 mL of 10% trichloroacetic acid (TCA) was added. The test tube was centrifuged for 10 min. (4,000 rpm), and the top aqueous layer was removed to another test tube for counting The precipitate was washed with water (0.5 mL×2). The combined water and top aqueous layer was counted. The residual precipitate was also counted. The protein binding was obtained by dividing counts in precipitate with counts in aqueous layers.

[3] = Regional brain distribution in rats (dissection, iv injection); assay type: in vivo; conditions: rat, listed as I-TBZ peak B
Protocol: Regional brain distribution of [^123 I]I-TBZ (with either a racemic mixture, peak A or B) in rats was obtained after an iv injection. By dissecting, weighing and counting samples from different brain regions (cortex, striatum, hippocampus and cerebellum), % dose/gram of the samples was calculated by comparing the sample counts with the counts of the diluted initial dose. The ratio of uptake in each region was obtained by dividing % dose/gram of each region with that of the cerebellum. The effect of tetrahydrobenazine on the uptake of peak A or peak B was investigated by pretreating the rats with the TBZ 3 mg/rat at 3 min before iv injection of [^123 I]I-TBZ. At 20 min. post injection the rats were dissected and the regional brain dissection was carried out as above.

[4] = Biodistribution in rats (iv injection); assay type: in vivo; conditions: rat, iv
Protocol: While under ether anesthesia, each rat was injected in the femoral vein with 0.2 mL saline solution containing [^123 I]I-TBZ (1-5uCi) either racemic mixture, peak-A or peak-B. The rats were sacrificed at various time points postinjection by cardiac excision. The tissues were weighed and the radioactivity was measured with a Canberra gamma counter (Model 5000). The percent dose per organ was calculated by a comparison of the tissue counts to suitably diluted aliquots of the injected material. Total activities of blood and muscle were calculated assuming that they were 7% and 40% of total body weight, respectively Results are presented in Tables 3, 4A and 4B.

[5] = normal and lesioned brain sections; cited from earlier work
[6] = system: monoamine transporter of chromaffin granules and CNS synaptic vesicles; conditions: cited from earlier work

Protein binding, by Filter [1]: 83.7 ± 0.8 % bound
Protein binding, by TCA [2]: 40.8 ± 0.6 % bound
Regional brain uptake, Rem ([3]; 5 min): 0.465 ± 0.070 % Dose/g
Regional brain uptake, cerebellum ([3]; 5 min): 0.449 ± 0.067 % Dose/g
Regional brain uptake, cortex ([3]; 5 min): 0.514 ± 0.066 % Dose/g
Regional brain uptake, hippocampus ([3]; 5 min): 0.458 ± 0.074 % Dose/g
Regional brain uptake, striatum ([3]; 5 min): 0.482 ± 0.066 % Dose/g
Str./Cb (% dose/gram ratio) ([3]; 5 min): 1.07
Regional brain uptake, Rem ([3]; 20 min): 0.172 ± 0.011 % Dose/g
Regional brain uptake, cerebellum ([3]; 20 min): 0.162 ± 0.017 % Dose/g
Regional brain uptake, cortex ([3]; 20 min): 0.183 ± 0.012 % Dose/g
Regional brain uptake, hippocampus ([3]; 20 min): 0.189 ± 0.012 % Dose/g
Regional brain uptake, striatum ([3]; 20 min): 0.189 ± 0.001 % Dose/g
Str./Cb (% dose/gram ratio) ([3]; 20 min): 1.17
Regional brain uptake, Rem ([3]; 60 min): 0.057 ± 0.006 % Dose/g
Regional brain uptake, cerebellum ([3]; 60 min): 0.055 ± 0.005 % Dose/g
Regional brain uptake, cortex ([3]; 60 min): 0.060 ± 0.007 % Dose/g
Regional brain uptake, hippocampus ([3]; 60 min): 0.058 ± 0.009 % Dose/g
Regional brain uptake, striatum ([3]; 60 min): 0.062 ± 0.002 % Dose/g
Str./Cb (% dose/gram ratio) ([3]; 60 min): 1.13
Regional brain uptake, Rem ([3]; 120 min): 0.027 ± 0.004 % Dose/g
Regional brain uptake, cerebellum ([3]; 120 min): 0.027 ± 0.005 % Dose/g
Regional brain uptake, cortex ([3]; 120 min): 0.028 ± 0.005 % Dose/g
Regional brain uptake, hippocampus ([3]; 120 min): 0.027 ± 0.004 % Dose/g
Regional brain uptake, striatum ([3]; 120 min): 0.027 ± 0.003 % Dose/g
Str./Cb (% dose/gram ratio) ([3]; 120 min): 1.00
Blood uptake (blood assumed 7% of body weight) ([4]; 5 min): 4.74 ± 0.36 % Dose/organ
Br/Bl (% dose/gram ratio) ([4]; 5 min): 1.54 ± 0.16
Brain uptake ([4]; 5 min): 0.74 ± 0.07 % Dose/organ
Heart uptake ([4]; 5 min): 0.63 ± 0.03 % Dose/organ
Kidney uptake ([4]; 5 min): 2.18 ± 0.34 % Dose/organ
Liver uptake ([4]; 5 min): 22.61 ± 1.85 % Dose/organ
Lung uptake ([4]; 5 min): 2.02 ± 0.22 % Dose/organ
Muscle uptake (muscle assumed 40% of body weight) ([4]; 5 min): 21.12 ± 1.36 % Dose/organ
Skin uptake ([4]; 5 min): 7.64 ± 3.09 % Dose/organ
Spleen uptake ([4]; 5 min): 0.46 ± 0.03 % Dose/organ
Thyroid uptake ([4]; 5 min): 0.07 ± 0.01 % Dose/organ
Blood uptake (blood assumed 7% of body weight) ([4]; 20 min): 2.76 ± 0.42 % Dose/organ
Br/Bl (% dose/gram ratio) ([4]; 20 min): 1.06 ± 0.22
Brain uptake ([4]; 20 min): 0.27 ± 0.02 % Dose/organ
Heart uptake ([4]; 20 min): 0.35 ± 0.02 % Dose/organ
Kidney uptake ([4]; 20 min): 1.37 ± 0.11 % Dose/organ
Liver uptake ([4]; 20 min): 17.25 ± 1.25 % Dose/organ
Lung uptake ([4]; 20 min): 1.05 ± 0.04 % Dose/organ
Muscle uptake (muscle assumed 40% of body weight) ([4]; 20 min): 19.78 ± 1.90 % Dose/organ
Skin uptake ([4]; 20 min): 8.37 ± 1.15 % Dose/organ
Spleen uptake ([4]; 20 min): 0.28 ± 0.03 % Dose/organ
Thyroid uptake ([4]; 20 min): 0.05 ± 0.01 % Dose/organ
Blood uptake (blood assumed 7% of body weight) ([4]; 60 min): 1.89 ± 0.13 % Dose/organ
Br/Bl (% dose/gram ratio) ([4]; 60 min): 0.47 ± 0.05
Brain uptake ([4]; 60 min): 0.087 ± 0.01 % Dose/organ
Heart uptake ([4]; 60 min): 0.16 ± 0.01 % Dose/organ
Kidney uptake ([4]; 60 min): 0.70 ± 0.06 % Dose/organ
Liver uptake ([4]; 60 min): 8.36 ± 1.01 % Dose/organ
Lung uptake ([4]; 60 min): 0.46 ± 0.03 % Dose/organ
Muscle uptake (muscle assumed 40% of body weight) ([4]; 60 min): 11.80 ± 2.02 % Dose/organ
Skin uptake ([4]; 60 min): 5.45 ± 0.64 % Dose/organ
Spleen uptake ([4]; 60 min): 0.14 ± 0.03 % Dose/organ
Thyroid uptake ([4]; 60 min): 0.13 ± 0.03 % Dose/organ
Blood uptake (blood assumed 7% of body weight) ([4]; 120 min): 1.89 ± 0.34 % Dose/organ
Br/Bl (% dose/gram ratio) ([4]; 120 min): 0.25 ± 0.03
Brain uptake ([4]; 120 min): 0.042 ± 0.008 % Dose/organ
Heart uptake ([4]; 120 min): 0.09 ± 0.02 % Dose/organ
Kidney uptake ([4]; 120 min): 0.36 ± 0.09 % Dose/organ
Liver uptake ([4]; 120 min): 4.35 ± 0.50 % Dose/organ
Lung uptake ([4]; 120 min): 0.27 ± 0.08 % Dose/organ
Muscle uptake (muscle assumed 40% of body weight) ([4]; 120 min): 5.72 ± 1.20 % Dose/organ
Skin uptake ([4]; 120 min): 4.80 ± 0.46 % Dose/organ
Spleen uptake ([4]; 120 min): 0.06 ± 0.01 % Dose/organ
Thyroid uptake ([4]; 120 min): 0.47 ± 0.14 % Dose/organ
Compound: COc1cc2c(cc1OC)C1CC(O)(C=C[123I])C(CC(C)C)CN1CC2 (single isomer, unassigned) [Peak B]

Compound: COc1cc2c(cc1OC)C1CC(O)C(CC(C)C)CN1CC2 (stereo not shown) [[^3 H]dihydro-TBZ, 2-hydroxy-3-(2-methylpropyl)-9,10-dimethoxy-1,3,4,6,7,11b-hexahydro-2H -benzo[a]quinolizine]
Regional distribution of binding sites in brain sections (in words) [5]: corresponded to the monoamine cell bodies and nerve endings
binding affinity for the transporter (in words) [6]: does not affect the binding affinity
Kd ([6]; membranes of chromaffin granules and brain tissue samples, in vitro, read-out: binding affinity Kd): 2 to 9 nM
